Earlier results, collected in patent US11504327B1, “Method of preparing nanoparticles by hot-melt extrusion” (priority 2019, dated 2022).

Conditions: polyethoxylated oleyl alcohols; Walters et al. 1993

permeation enhancement of ibuprofen across human skin | Substance
most effective permeation enhancer | oleth-2
worst | oleth-20
